The text below walks through data of patent publication US12295936B2, “Immunomodulating urea azalides” (Zoetis Services LLC, priority 2020, dated 2025).

Holding throughout (assay): LPS-stimulated whole bovine blood assay, MSD cytokine detection
Format in all cases: cell-based

The subject of one test is TNF-α. The conditions noted are these: Bos taurus, read-out: TNF-α (IC50 μM).
The subject of another test is IL-1β. As to conditions: overstimulation of IL-1β, LPS-stimulated bovine whole blood.
Another test relates to IL-6. As to conditions: Bos taurus, read-out: IL-6 (IC50 μM). An excerpt: In order to correlate RNA sequencing data to cytokine changes the whole blood assay was utilized. […] The enhancement result represents an overall stimulation of cytokine levels due to cellular stress or potential toxicity with increasing concentrations of the compound, representing a typical bell shape response curve for immunomodulatory activity.

Setting [1] is: LPS-stimulated bovine whole blood.

Each structure is given as a SMILES string. Where two headings read alike, the source gives them in different places.

The IC50 is the concentration at which inhibition is half-maximal. `CC[C@H]1OC(=O)[C@H](C)[C@@H](O[C@H]2C[C@@](C)(OC)[C@](O)(CNCC3CCN(C)CC3)[C@H](C)O2)[C@H](C)[C@@H](O[C@@H]2O[C@H](C)C[C@H](N(C)C(=O)N(C)c3ccccc3)[C@H]2O)[C@](C)(O)C[C@@H](C)CN[C@H](C)[C@@H](O)[C@]1(C)O` [Example H-30, 1-((2S,3R,4S,6R)-2-(((2R,3S,4R,5R,8R,10R,11R,12S,13S,14R)-2-ethyl-3,4,10-trihydroxy-13-(((2R,4R,5S,6S)-5-hydroxy-4-methoxy-4,6-dimethyl-5-((((1-methylpiperidin-4-yl)methyl)amino)methyl)tetrahydro-2H-pyran-2-yl)oxy)-3,5,8,10,12,14-hexamethyl-15-oxo-1-oxa-6-azacyclopentadecan-11-yl)oxy)-3-hydroxy-6-methyltetrahydro-2H-pyran-4-yl)-1,3-dimethyl-3-phenylurea]: the figures for the IC50 with TNF-α (setting [1]) and in the test with IL-6 (setting [1]) were 250 µM and above 250 µM, respectively. The “IL-1β OS of LPS” value in the test on IL-1β is 250 µM.
For `CC[C@H]1OC(=O)[C@H](C)[C@@H](O[C@H]2C[C@@](C)(OC)[C@](O)(CNCCCN3CCCCC3)[C@H](C)O2)[C@H](C)[C@@H](O[C@@H]2O[C@H](C)C[C@H](N(C)C(=O)N(C)c3ccccc3)[C@H]2O)[C@](C)(O)C[C@@H](C)CN[C@H](C)[C@@H](O)[C@]1(C)O` [Example H-38, 1-((2S,3R,4S,6R)-2-(((2R,3S,4R,5R,8R,10R,11R,12S,13S,14R)-2-ethyl-3,4,10-trihydroxy-13-(((2R,4R,5S,6S)-5-hydroxy-4-methoxy-4,6-dimethyl-5-(((3-(piperidin-1-yl)propyl)amino)methyl)tetrahydro-2H-pyran-2-yl)oxy)-3,5,8,10,12,14-hexamethyl-15-oxo-1-oxa-6-azacyclopentadecan-11-yl)oxy)-3-hydroxy-6-methyltetrahydro-2H-pyran-4-yl)-1,3-dimethyl-3-phenylurea], the IC50 in the test with TNF-α (setting [1]) worked out at 49 µM; in the test on IL-6 (setting [1]) it was 36 µM. Moreover, the “IL-1β OS of LPS” value in the test on IL-1β is above 250 µM.
In the case of `CCCNC[C@]1(O)[C@H](C)O[C@@H](O[C@H]2[C@H](C)[C@@H](O[C@@H]3O[C@H](C)C[C@H](N(C)C(=O)N(C)c4ccccn4)[C@H]3O)[C@](C)(O)C[C@@H](C)CN[C@H](C)[C@@H](O)[C@](C)(O)[C@@H](CC)OC(=O)[C@@H]2C)C[C@@]1(C)OC` [Example H-45, 1-((2S,3R,4S,6R)-2-(((2R,3S,4R,5R,8R,10R,11R,12S,13S,14R)-2-ethyl-3,4,10-trihydroxy-13-(((2R,4R,5S,6S)-5-hydroxy-4-methoxy-4,6-dimethyl-5-((propylamino)methyl)tetrahydro-2H-pyran-2-yl)oxy)-3,5,8,10,12,14-hexamethyl-15-oxo-1-oxa-6-azacyclopentadecan-11-yl)oxy)-3-hydroxy-6-methyltetrahydro-2H-pyran-4-yl)-1,3-dimethyl-3-(pyridin-2-yl)urea], the IC50 was determined as 109 µM with TNF-α (setting [1]) and 130 µM with IL-6 (setting [1]). Further, the “IL-1β OS of LPS” value with IL-1β was determined as 250 µM.
For `CCCNC[C@]1(O)[C@H](C)O[C@@H](O[C@H]2[C@H](C)[C@@H](O[C@@H]3O[C@H](C)C[C@H](N(C)C(=O)N(C)c4cncnc4)[C@H]3O)[C@](C)(O)C[C@@H](C)CN[C@H](C)[C@@H](O)[C@](C)(O)[C@@H](CC)OC(=O)[C@@H]2C)C[C@@]1(C)OC` [Example H-50, 1-((2S,3R,4S,6R)-2-(((2R,3S,4R,5R,8R,10R,11R,12S,13S,14R)-2-ethyl-3,4,10-trihydroxy-13-(((2R,4R,5S,6S)-5-hydroxy-4-methoxy-4,6-dimethyl-5-((propylamino)methyl)tetrahydro-2H-pyran-2-yl)oxy)-3,5,8,10,12,14-hexamethyl-15-oxo-1-oxa-6-azacyclopentadecan-11-yl)oxy)-3-hydroxy-6-methyltetrahydro-2H-pyran-4-yl)-1,3-dimethyl-3-(pyrimidin-5-yl)urea], the concentration for half-maximal inhibition (IC50) with TNF-α (setting [1]) and in the test with IL-6 (setting [1]) was above 250 µM each time. The “IL-1β OS of LPS” value with IL-1β was above 250 µM.
In the case of `CCCNC[C@]1(O)[C@H](C)O[C@@H](O[C@H]2[C@H](C)[C@@H](O[C@@H]3O[C@H](C)C[C@H](N(C)C(=O)N(C)c4cnn(C)c4)[C@H]3O)[C@](C)(O)C[C@@H](C)CN[C@H](C)[C@@H](O)[C@](C)(O)[C@@H](CC)OC(=O)[C@@H]2C)C[C@@]1(C)OC` [Example H-58, 1-((2S,3R,4S,6R)-2-(((2R,3S,4R,5R,8R,10R,11R,12S,13S,14R)-2-ethyl-3,4,10-trihydroxy-13-(((2R,4R,5S,6S)-5-hydroxy-4-methoxy-4,6-dimethyl-5-((propylamino)methyl)tetrahydro-2H-pyran-2-yl)oxy)-3,5,8,10,12,14-hexamethyl-15-oxo-1-oxa-6-azacyclopentadecan-11-yl)oxy)-3-hydroxy-6-methyltetrahydro-2H-pyran-4-yl)-1,3-dimethyl-3-(1-methyl-1H-pyrazol-4-yl)urea], the IC50 in the test with TNF-α and in the test with IL-6 was above 250 µM each time. In addition, the “IL-1β OS of LPS” value with IL-1β was above 250 µM.
As to `CC[C@H]1OC(=O)[C@H](C)[C@@H](O[C@H]2C[C@@](C)(OC)[C@](O)(CN)[C@H](C)O2)[C@H](C)[C@@H](O[C@@H]2O[C@H](C)C[C@H](N(C)C(=O)N(C)c3ccccc3)[C@H]2O)[C@](C)(O)C[C@@H](C)CN[C@H](C)[C@@H](O)[C@]1(C)O` [Example H-66, 1-((2S,3R,4S,6R)-2-(((2R,3S,4R,5R,8R,10R,11R,12S,13S,14R)-13-(((2R,4R,5S,6S)-5-(aminomethyl)-5-hydroxy-4-methoxy-4,6-dimethyltetrahydro-2H-pyran-2-yl)oxy)-2-ethyl-3,4,10-trihydroxy-3,5,8,10,12,14-hexamethyl-15-oxo-1-oxa-6-azacyclopentadecan-11-yl)oxy)-3-hydroxy-6-methyltetrahydro-2H-pyran-4-yl)-1,3-dimethyl-3-phenylurea], the IC50 in the test with TNF-α (setting [1]) was 106 µM; in the test with IL-6 (setting [1]), above 250 µM. Further, the “IL-1β OS of LPS” value with IL-1β is 250 µM.
Turning to `CCCNC[C@]1(O)[C@H](C)O[C@@H](O[C@H]2[C@H](C)[C@@H](O[C@@H]3O[C@H](C)C[C@H](N(CCC)C(=O)N(C)c4ccccc4)[C@H]3O)[C@](C)(O)C[C@@H](C)CN[C@H](C)[C@@H](O)[C@](C)(O)[C@@H](CC)OC(=O)[C@@H]2C)C[C@@]1(C)OC` [Example H-69, 1-((2S,3R,4S,6R)-2-(((2R,3S,4R,5R,8R,10R,11R,12S,13S,14R)-2-ethyl-3,4,10-trihydroxy-13-(((2R,4R,5S,6S)-5-hydroxy-4-methoxy-4,6-dimethyl-5-((propylamino)methyl)tetrahydro-2H-pyran-2-yl)oxy)-3,5,8,10,12,14-hexamethyl-15-oxo-1-oxa-6-azacyclopentadecan-11-yl)oxy)-3-hydroxy-6-methyltetrahydro-2H-pyran-4-yl)-3-methyl-3-phenyl-1-propylurea], the results for the half-inhibitory concentration (IC50) in the test on TNF-α (setting [1]) and in the test on IL-6 (setting [1]) were 14 µM and 8 µM, respectively. The “IL-1β OS of LPS” value in the test with IL-1β was 6 µM.
Taken in the same sequence, the figures for `CCCNC[C@]1(O)[C@H](C)O[C@@H](O[C@H]2[C@H](C)[C@@H](O[C@@H]3O[C@H](C)C[C@H](N(CC(C)C)C(=O)N(C)c4ccccc4)[C@H]3O)[C@](C)(O)C[C@@H](C)CN[C@H](C)[C@@H](O)[C@](C)(O)[C@@H](CC)OC(=O)[C@@H]2C)C[C@@]1(C)OC` [Example H-70, 1-((2S,3R,4S,6R)-2-(((2R,3S,4R,5R,8R,10R,11R,12S,13S,14R)-2-ethyl-3,4,10-trihydroxy-13-(((2R,4R,5S,6S)-5-hydroxy-4-methoxy-4,6-dimethyl-5-((propylamino)methyl)tetrahydro-2H-pyran-2-yl)oxy)-3,5,8,10,12,14-hexamethyl-15-oxo-1-oxa-6-azacyclopentadecan-11-yl)oxy)-3-hydroxy-6-methyltetrahydro-2H-pyran-4-yl)-1-isobutyl-3-methyl-3-phenylurea] were 13 µM, 4 µM and 6 µM.
For the molecule `CCCNC[C@]1(O)[C@H](C)O[C@@H](O[C@H]2[C@H](C)[C@@H](O[C@@H]3O[C@H](C)C[C@H](N(Cc4cccnc4)C(=O)N(C)c4ccccc4)[C@H]3O)[C@](C)(O)C[C@@H](C)CN[C@H](C)[C@@H](O)[C@](C)(O)[C@@H](CC)OC(=O)[C@@H]2C)C[C@@]1(C)OC` [Example H-71, 1-((2S,3R,4S,6R)-2-(((2R,3S,4R,5R,8R,10R,11R,12S,13S,14R)-2-ethyl-3,4,10-trihydroxy-13-(((2R,4R,5S,6S)-5-hydroxy-4-methoxy-4,6-dimethyl-5-((propylamino)methyl)tetrahydro-2H-pyran-2-yl)oxy)-3,5,8,10,12,14-hexamethyl-15-oxo-1-oxa-6-azacyclopentadecan-11-yl)oxy)-3-hydroxy-6-methyltetrahydro-2H-pyran-4-yl)-3-methyl-3-phenyl-1-(pyridin-3-ylmethyl)urea], the IC50 is 32 µM with TNF-α (setting [1]) and 35 µM in the test with IL-6 (setting [1]). Moreover, in the test with IL-1β, the “IL-1β OS of LPS” value amounted to 16 µM.
The corresponding values for `CCCNC[C@]1(O)[C@H](C)O[C@@H](O[C@H]2[C@H](C)[C@@H](O[C@@H]3O[C@H](C)C[C@H](N(C)C(=O)Nc4ccccc4OC)[C@H]3O)[C@](C)(O)C[C@@H](C)CN[C@H](C)[C@@H](O)[C@](C)(O)[C@@H](CC)OC(=O)[C@@H]2C)C[C@@]1(C)OC` [Example H-76, 1-((2S,3R,4S,6R)-2-(((2R,3S,4R,5R,8R,10R,11R,12S,13S,14R)-2-ethyl-3,4,10-trihydroxy-13-(((2R,4R,5S,6S)-5-hydroxy-4-methoxy-4,6-dimethyl-5-((propylamino)methyl)tetrahydro-2H-pyran-2-yl)oxy)-3,5,8,10,12,14-hexamethyl-15-oxo-1-oxa-6-azacyclopentadecan-11-yl)oxy)-3-hydroxy-6-methyltetrahydro-2H-pyran-4-yl)-3-(2-methoxyphenyl)-1-methylurea] are 179 µM, above 500 µM and 100 µM.
